Here are results for 1 compound from paper PMC9561263 (2022).

SMILES strings stand for the structures.

The test concerns 32R-3n (DNA, G4) GCGGTGTGGGAAGAGGGAAGAGGGGGAGGCAG
Put plainly: UV melting, 260 nm. As to conditions: 0.1 M Li+; 0.02 M Tris-HCl pH 7.0; 4 μM DNA, 40 μM ThT; psDNA.

Turning to `Cc1ccc2c(c1)sc(-c1ccc(N(C)C)cc1)[n+]2C`, the ΔTm is ~ 19.8 °C.
